The values below are quoted from earlier work in patent EP4209496A1, “NOVEL FLUORESCENT BODIPY COMPOUNDS DISPLAYING ABSORPTION AND EMISSION IN THE NIR REGION” (Université de Strasbourg, priority 2022, dated 2023).

Where two headings read alike, the source gives them in different places.

As for `CC1(C)C(/C=C/C=C/C=C/C=C2\N(CCCCS(=O)(=O)O)c3ccc4ccccc4c3C2(C)C)=[N+](CCCCS(=O)(=O)[O-])c2ccc3ccccc3c21` [Indocyanine green], under “solvent: biological serum”, the λem is 822 nm and the φf was 9%.

On to `CN(C)c1ccc2nc3ccc(=[N+](C)C)cc-3sc2c1` [Methylene blue], for which, for the setting “solvent: biological serum”, the λem was 686 nm and the φf is given as 10%.

With `CCN1C(=CC=CC=CC=CC2=[N+](CCCCCC(=O)O)c3ccc(S(=O)(=O)O)cc3C2(C)C)C(C)(C)c2cc(S(=O)(=O)[O-])ccc21` [Cy7], for the setting “solvent: PBS buffer”, the λem is reported as 774 nm and the φf is reported as 28%.

`CC1(C)C(=CC=C2CCCC(C=CC3=[N+](CCCCCC(=O)[O-])c4ccc(S(=O)(=O)[O-])cc4C3(C)C)=C2Oc2ccc(S(=O)(=O)[O-])cc2)N(CCCCS(=O)(=O)[O-])c2ccc(S(=O)(=O)[O-])cc21.[Na+].[Na+].[Na+].[Na+]` [IRDye800CW]: under “solvent: biological serum”, the λem is 789 nm and the φf is 12%.
